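Each compound was tested at five concentrations against cells in 96-well plates for 48 hours. Abbreviation: GI50, concentration required for 50% inhibition of growth.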 Active and inactive are the calls of the source. Cut-off read from the data, not from the text of the source: active = GI50 up to about 1.1 µM and inactive = higher.
How the values were obtained:
Assay in all cases: NCI tumour cell line growth inhibition, 48 h
SNB-19 = system: SNB-19
TK-10 = system: TK-10
SNB-75 = system: SNB-75
SF-295 = system: SF-295
786-0 = system: 786-0
HT-29 = system: HT-29
T47D = system: T47D
NCI-H23 = system: NCI-H23
HCT-15 = system: HCT-15
LOX IMVI = system: LOX IMVI
BT-549 = system: BT-549
Hs-578T = system: Hs-578T
NCI-H226 = system: NCI-H226
A498 = system: A498
UACC-257 = system: UACC-257
M14 = system: M14
SN12C = system: SN12C
OVCAR-8 = system: OVCAR-8
NCI-H522 = system: NCI-H522
HCC 2998 = system: HCC 2998

Compound | GI50 (SNB-19) | GI50 (TK-10) | GI50 (SNB-75) | GI50 (SF-295) | GI50 (786-0) | GI50 (HT-29) | GI50 (T47D) | GI50 (NCI-H23) | GI50 (HCT-15) [µM] | GI50 (LOX IMVI) | GI50 (BT-549) | GI50 (Hs-578T) | GI50 (NCI-H226) | GI50 (A498) | GI50 (UACC-257) | GI50 (M14) | GI50 (SN12C) | GI50 (OVCAR-8) | GI50 (NCI-H522) | GI50 (HCC 2998)
O=C(O)/C=C\C(=O)Nc1ccc2c(c1)C(=O)c1cc(F)ccc1-2 | > 100 µM (inactive) | > 100 µM (inactive) | > 100 µM (inactive) | > 100 µM (inactive) | > 100 µM (inactive) | > 100 µM (inactive) | > 100 µM (inactive) | > 100 µM (inactive) | > 100 | > 100 µM (inactive) | > 100 µM (inactive) | 54.3 µM (inactive) | > 100 µM (inactive) | > 100 µM (inactive) | > 100 µM (inactive) | > 100 µM (inactive) | > 100 µM (inactive) | > 100 µM (inactive) | 56.2 µM (inactive) | –
Cc1nc(O)nc2nc3cc(Cl)cc(Cl)c3c(NC(C)(CO)CO)c12 | 21.4 µM (inactive) | 27.4 µM (inactive) | 11.4 µM (inactive) | 30.3 µM (inactive) | 15.6 µM (inactive) | > 100 µM (inactive) | > 100 µM (inactive) | 81.8 µM (inactive) | > 100 | > 100 µM (inactive) | 35.6 µM (inactive) | 31.6 µM (inactive) | > 100 µM (inactive) | 13.6 µM (inactive) | > 100 µM (inactive) | > 100 µM (inactive) | > 100 µM (inactive) | 75.2 µM (inactive) | > 100 µM (inactive) | > 100 µM (inactive)
CCOC(=O)c1cc2cc(Cc3ccc4[nH]c(C(=O)OCC)cc4c3)ccc2[nH]1 | 13 µM (inactive) | 13.9 µM (inactive) | 12.2 µM (inactive) | 17.5 µM (inactive) | 2.86 µM (inactive) | 35.4 µM (inactive) | 32.4 µM (inactive) | 14.7 µM (inactive) | > 100 | 38.7 µM (inactive) | 12.6 µM (inactive) | 12.6 µM (inactive) | 18.6 µM (inactive) | 17.3 µM (inactive) | 43.6 µM (inactive) | > 100 µM (inactive) | 23.7 µM (inactive) | 5.94 µM (inactive) | – | 91.6 µM (inactive)
O=[N+]([O-])c1ccc(C2=NOC(c3ccc(Cl)cc3)N2C23CC4CC(CC(C4)C2)C3)cc1 (stereo not drawn) | > 100 µM (inactive) | > 100 µM (inactive) | > 100 µM (inactive) | > 100 µM (inactive) | > 100 µM (inactive) | > 100 µM (inactive) | 35.2 µM (inactive) | > 100 µM (inactive) | 97.1 | > 100 µM (inactive) | > 100 µM (inactive) | 34.9 µM (inactive) | 64.9 µM (inactive) | > 100 µM (inactive) | > 100 µM (inactive) | > 100 µM (inactive) | > 100 µM (inactive) | > 100 µM (inactive) | > 100 µM (inactive) | 64.1 µM (inactive)
CN1CCc2cc3c(c4c2C1C(O)c1ccccc1-4)OCO3 (stereo not drawn) | 10.6 µM (inactive) | 14.2 µM (inactive) | 12.6 µM (inactive) | 5.69 µM (inactive) | 6.21 µM (inactive) | 3.5 µM (inactive) | 13 µM (inactive) | 12 µM (inactive) | 3.59 | 4.25 µM (inactive) | 3.86 µM (inactive) | 3.19 µM (inactive) | – | 3.27 µM (inactive) | 7.19 µM (inactive) | 5.12 µM (inactive) | 3.03 µM (inactive) | 7.53 µM (inactive) | 2.93 µM (inactive) | 8.91 µM (inactive)
CSC(SC)=C(C#N)C(=O)Nc1ccc(Cl)cc1 | 68.1 µM (inactive) | 23.8 µM (inactive) | 95.3 µM (inactive) | – | 31.7 µM (inactive) | 35.6 µM (inactive) | 25.4 µM (inactive) | 30.2 µM (inactive) | 33.2 | 23.1 µM (inactive) | 46.7 µM (inactive) | > 100 µM (inactive) | 23.6 µM (inactive) | 10.6 µM (inactive) | > 100 µM (inactive) | 48.4 µM (inactive) | > 100 µM (inactive) | 52.8 µM (inactive) | – | > 100 µM (inactive)
Cc1ccc2c(c1)Sc1ccc(/N=N/N(C)C)cc1N2C | > 100 µM (inactive) | > 100 µM (inactive) | > 100 µM (inactive) | > 100 µM (inactive) | > 100 µM (inactive) | > 100 µM (inactive) | 31.7 µM (inactive) | > 100 µM (inactive) | > 100 | 35.8 µM (inactive) | 71 µM (inactive) | > 100 µM (inactive) | > 100 µM (inactive) | > 100 µM (inactive) | – | > 100 µM (inactive) | > 100 µM (inactive) | > 100 µM (inactive) | > 100 µM (inactive) | > 100 µM (inactive)
O=C1CNNC(CSc2nc3ccc(I)cc3c(=O)n2Cc2ccccc2)=N1 | 53.5 µM (inactive) | 30.1 µM (inactive) | 11.6 µM (inactive) | 20.4 µM (inactive) | 29.9 µM (inactive) | 33.7 µM (inactive) | 15.5 µM (inactive) | 31.6 µM (inactive) | 32 | 18.2 µM (inactive) | 27.5 µM (inactive) | 32.9 µM (inactive) | 18.1 µM (inactive) | 27.8 µM (inactive) | 26.4 µM (inactive) | 36.1 µM (inactive) | 17.1 µM (inactive) | 26.5 µM (inactive) | 23 µM (inactive) | 27 µM (inactive)
CCOC(=O)c1sc(N)nc1N1CCCC1 | > 100 µM (inactive) | > 100 µM (inactive) | > 100 µM (inactive) | > 100 µM (inactive) | > 100 µM (inactive) | > 100 µM (inactive) | > 100 µM (inactive) | > 100 µM (inactive) | > 100 | > 100 µM (inactive) | > 100 µM (inactive) | > 100 µM (inactive) | > 100 µM (inactive) | > 100 µM (inactive) | > 100 µM (inactive) | > 100 µM (inactive) | > 100 µM (inactive) | > 100 µM (inactive) | > 100 µM (inactive) | –
Cc1nc2c(=O)n3c4c(cccc4c2o1)CCC3 | > 100 µM (inactive) | > 100 µM (inactive) | > 100 µM (inactive) | > 100 µM (inactive) | > 100 µM (inactive) | 76 µM (inactive) | > 100 µM (inactive) | > 100 µM (inactive) | 49.4 | > 100 µM (inactive) | > 100 µM (inactive) | > 100 µM (inactive) | > 100 µM (inactive) | > 100 µM (inactive) | > 100 µM (inactive) | > 100 µM (inactive) | > 100 µM (inactive) | > 100 µM (inactive) | – | > 100 µM (inactive)
O=P(c1ccccc1)(c1ccccc1)c1ccc2c(c1)OCCOCCOCCOCCO2 | > 100 µM (inactive) | > 100 µM (inactive) | > 100 µM (inactive) | > 100 µM (inactive) | > 100 µM (inactive) | – | > 100 µM (inactive) | > 100 µM (inactive) | > 100 | > 100 µM (inactive) | > 100 µM (inactive) | > 100 µM (inactive) | > 100 µM (inactive) | > 100 µM (inactive) | – | > 100 µM (inactive) | > 100 µM (inactive) | > 100 µM (inactive) | > 100 µM (inactive) | > 100 µM (inactive)
C#CC(C)(C)OC(=O)C(=[N+]=[N-])C(C)=O | > 10 µM (inactive) | > 10 µM (inactive) | > 10 µM (inactive) | > 10 µM (inactive) | > 10 µM (inactive) | > 10 µM (inactive) | > 10 µM (inactive) | > 10 µM (inactive) | > 10 | > 10 µM (inactive) | > 10 µM (inactive) | > 10 µM (inactive) | > 10 µM (inactive) | > 10 µM (inactive) | > 10 µM (inactive) | > 10 µM (inactive) | > 10 µM (inactive) | > 10 µM (inactive) | – | > 10 µM (inactive)
Cc1cc(-c2nc3cccc(F)c3s2)ccc1N | > 80.2 µM (inactive) | 0.48 µM (active) | > 51.4 µM (inactive) | > 65 µM (inactive) | > 56.2 µM (inactive) | > 57.3 µM (inactive) | 0.033 µM (active) | – | > 67.6 | > 63.2 µM (inactive) | 46.2 µM (inactive) | > 54.2 µM (inactive) | 22.1 µM (inactive) | > 58.6 µM (inactive) | > 68.1 µM (inactive) | > 68.2 µM (inactive) | > 45.8 µM (inactive) | > 80.9 µM (inactive) | > 100 µM (inactive) | > 37.1 µM (inactive)
CC(C)(C)c1ccc(OC(=O)Nc2ccc(O)c(C(=O)O)c2)cc1 | > 100 µM (inactive) | > 100 µM (inactive) | > 100 µM (inactive) | > 100 µM (inactive) | > 100 µM (inactive) | > 100 µM (inactive) | > 100 µM (inactive) | > 100 µM (inactive) | > 100 | > 100 µM (inactive) | > 100 µM (inactive) | > 100 µM (inactive) | > 100 µM (inactive) | > 100 µM (inactive) | > 100 µM (inactive) | > 100 µM (inactive) | > 100 µM (inactive) | > 100 µM (inactive) | > 100 µM (inactive) | –
CC[C@](O)(C(=O)O)c1cc2n(c(=O)c1CO)Cc1cc3ccccc3nc1-2 | 0.025 µM (active) | 0.282 µM (active) | 0.0333 µM (active) | 0.025 µM (active) | 0.00366 µM (active) | 0.0461 µM (active) | 0.0324 µM (active) | 0.025 µM (active) | 0.0964 | – | 0.0791 µM (active) | 6.05 µM (inactive) | – | 0.0398 µM (active) | – | 0.00292 µM (active) | 0.025 µM (active) | – | 0.0306 µM (active) | 0.324 µM (active)
